From patent US10168342B2, “Lipid probes and uses thereof” (THE SCRIPPS RESEARCH INSTITUTE, priority 2015, dated 2019) come the findings set out here.

The target of assay [1] is T1, AEA-DA lipid probe targets in Neuro2a cells (Mus musculus, UniProt Q8C7K6).
T1 sequence (Q8C7K6 23-495): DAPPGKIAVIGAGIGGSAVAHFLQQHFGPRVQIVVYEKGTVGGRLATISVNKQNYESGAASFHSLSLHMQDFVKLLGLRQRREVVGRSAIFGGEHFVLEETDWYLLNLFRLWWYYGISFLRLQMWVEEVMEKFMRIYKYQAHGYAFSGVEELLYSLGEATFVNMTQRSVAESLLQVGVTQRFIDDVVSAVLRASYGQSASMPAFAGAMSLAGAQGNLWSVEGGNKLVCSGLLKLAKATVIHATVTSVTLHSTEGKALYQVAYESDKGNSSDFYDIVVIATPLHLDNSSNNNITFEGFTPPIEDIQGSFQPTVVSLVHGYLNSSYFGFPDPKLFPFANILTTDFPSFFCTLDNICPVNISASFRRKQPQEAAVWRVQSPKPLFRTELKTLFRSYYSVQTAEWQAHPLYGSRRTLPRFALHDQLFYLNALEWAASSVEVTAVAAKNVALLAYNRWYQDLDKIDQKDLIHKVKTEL

For assay [2], the target named is T2, AEA-DA lipid probe targets in Neuro2a cells (Mus musculus, UniProt Q91ZN5).
T2 sequence (Q91ZN5 1-431): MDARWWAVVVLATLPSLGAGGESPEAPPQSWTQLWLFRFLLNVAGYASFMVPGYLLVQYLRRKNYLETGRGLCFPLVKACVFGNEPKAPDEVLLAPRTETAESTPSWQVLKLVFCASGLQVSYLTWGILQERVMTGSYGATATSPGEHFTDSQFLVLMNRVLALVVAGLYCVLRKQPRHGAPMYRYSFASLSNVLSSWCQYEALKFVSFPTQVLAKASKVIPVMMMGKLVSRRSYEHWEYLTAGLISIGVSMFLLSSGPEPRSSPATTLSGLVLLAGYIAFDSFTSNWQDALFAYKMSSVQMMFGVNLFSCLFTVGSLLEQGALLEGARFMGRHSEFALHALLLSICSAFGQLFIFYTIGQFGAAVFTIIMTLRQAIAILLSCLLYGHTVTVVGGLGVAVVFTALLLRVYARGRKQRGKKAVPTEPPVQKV

Assay [3] has as its target T3, AEA-DA lipid probe targets in Neuro2a cells (Mus musculus, UniProt Q3UEB3).
T3 sequence (Q3UEB3 1-564): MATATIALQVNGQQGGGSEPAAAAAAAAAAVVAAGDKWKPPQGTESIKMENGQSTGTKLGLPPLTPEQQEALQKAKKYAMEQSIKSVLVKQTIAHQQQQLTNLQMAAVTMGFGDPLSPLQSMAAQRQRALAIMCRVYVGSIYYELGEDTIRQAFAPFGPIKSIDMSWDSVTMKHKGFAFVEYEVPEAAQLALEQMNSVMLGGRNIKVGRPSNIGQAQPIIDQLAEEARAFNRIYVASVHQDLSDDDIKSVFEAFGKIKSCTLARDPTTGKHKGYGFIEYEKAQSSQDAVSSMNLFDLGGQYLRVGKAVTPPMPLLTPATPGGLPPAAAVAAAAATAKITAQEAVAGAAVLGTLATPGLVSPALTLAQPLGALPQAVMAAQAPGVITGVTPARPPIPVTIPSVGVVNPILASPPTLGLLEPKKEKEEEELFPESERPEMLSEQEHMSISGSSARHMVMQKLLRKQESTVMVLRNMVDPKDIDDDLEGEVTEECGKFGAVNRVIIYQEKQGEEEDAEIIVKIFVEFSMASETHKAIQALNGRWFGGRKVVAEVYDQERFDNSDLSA

The target of assay [4] is AEA-DA lipid probe targets in Neuro2a cells (Mus musculus, UniProt O55143).
AEA-DA lipid probe targets in Neuro2a cells (Mus musculus, UniProt O55143), sequence (O55143 whole entry): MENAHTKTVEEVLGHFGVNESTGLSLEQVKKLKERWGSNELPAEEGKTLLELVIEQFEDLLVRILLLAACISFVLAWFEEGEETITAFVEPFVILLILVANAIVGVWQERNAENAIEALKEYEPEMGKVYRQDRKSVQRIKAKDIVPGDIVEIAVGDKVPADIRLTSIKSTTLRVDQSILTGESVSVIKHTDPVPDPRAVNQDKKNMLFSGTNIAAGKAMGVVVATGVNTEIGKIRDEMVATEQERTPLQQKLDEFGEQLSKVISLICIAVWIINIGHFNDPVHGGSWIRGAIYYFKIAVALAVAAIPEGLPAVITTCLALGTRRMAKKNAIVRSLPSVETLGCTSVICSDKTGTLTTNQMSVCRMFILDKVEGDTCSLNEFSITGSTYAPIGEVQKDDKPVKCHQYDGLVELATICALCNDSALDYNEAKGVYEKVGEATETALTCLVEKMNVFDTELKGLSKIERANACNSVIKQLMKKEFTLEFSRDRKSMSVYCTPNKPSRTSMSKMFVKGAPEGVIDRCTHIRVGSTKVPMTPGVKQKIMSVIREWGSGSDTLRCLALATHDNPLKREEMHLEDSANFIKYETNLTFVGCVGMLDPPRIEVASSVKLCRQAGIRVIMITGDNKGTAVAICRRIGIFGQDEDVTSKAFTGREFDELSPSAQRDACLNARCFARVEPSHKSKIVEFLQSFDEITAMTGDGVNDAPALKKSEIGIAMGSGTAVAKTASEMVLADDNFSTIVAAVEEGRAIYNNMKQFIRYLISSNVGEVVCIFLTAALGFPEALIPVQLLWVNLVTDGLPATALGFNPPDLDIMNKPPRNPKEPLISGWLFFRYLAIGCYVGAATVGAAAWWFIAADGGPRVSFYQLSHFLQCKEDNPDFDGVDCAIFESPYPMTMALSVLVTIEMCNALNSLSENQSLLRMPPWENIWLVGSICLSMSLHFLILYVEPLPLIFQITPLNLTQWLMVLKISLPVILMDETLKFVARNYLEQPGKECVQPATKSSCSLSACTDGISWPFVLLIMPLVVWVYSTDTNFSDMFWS
Assay [5] concerns the target T4, AEA-DA lipid probe targets in Neuro2a cells (Mus musculus, UniProt Q9QZD8).
T4 sequence (Q9QZD8 1-287): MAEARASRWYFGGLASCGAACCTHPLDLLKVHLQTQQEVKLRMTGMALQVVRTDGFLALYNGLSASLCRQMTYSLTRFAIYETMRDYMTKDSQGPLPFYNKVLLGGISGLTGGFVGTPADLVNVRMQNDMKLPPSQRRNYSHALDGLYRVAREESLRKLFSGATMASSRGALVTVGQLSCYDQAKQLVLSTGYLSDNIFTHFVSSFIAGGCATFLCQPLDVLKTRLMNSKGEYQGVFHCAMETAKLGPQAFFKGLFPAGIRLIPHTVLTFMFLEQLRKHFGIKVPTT

Assay [6] addresses AEA-DA lipid probe targets in Neuro2a cells (Mus musculus, UniProt Q8BK63).
Assay [7] addresses T5, AEA-DA lipid probe targets in Neuro2a cells (Mus musculus, UniProt Q8VD00).
T5 sequence (Q8VD00 1-176): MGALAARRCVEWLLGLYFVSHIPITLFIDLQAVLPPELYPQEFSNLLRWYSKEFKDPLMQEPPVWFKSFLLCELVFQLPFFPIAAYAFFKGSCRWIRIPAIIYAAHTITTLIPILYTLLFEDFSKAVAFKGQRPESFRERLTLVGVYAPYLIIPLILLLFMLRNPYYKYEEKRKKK

For assay [8], the target named is T6, AEA-DA lipid probe targets in Neuro2a cells (Mus musculus, UniProt Q3V009).
T6 sequence (Q3V009 25-227): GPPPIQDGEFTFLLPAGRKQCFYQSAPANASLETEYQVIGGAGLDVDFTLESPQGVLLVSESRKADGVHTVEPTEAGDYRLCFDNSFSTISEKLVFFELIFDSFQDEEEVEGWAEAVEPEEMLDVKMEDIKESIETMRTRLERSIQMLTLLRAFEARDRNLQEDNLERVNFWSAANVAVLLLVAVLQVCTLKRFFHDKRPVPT

Where two headings read alike, the source gives them in different places.

AEA-DA lipid probe targets in Neuro2a cells (Mus musculus, UniProt Q8BK63), sequence (Q8BK63 whole entry): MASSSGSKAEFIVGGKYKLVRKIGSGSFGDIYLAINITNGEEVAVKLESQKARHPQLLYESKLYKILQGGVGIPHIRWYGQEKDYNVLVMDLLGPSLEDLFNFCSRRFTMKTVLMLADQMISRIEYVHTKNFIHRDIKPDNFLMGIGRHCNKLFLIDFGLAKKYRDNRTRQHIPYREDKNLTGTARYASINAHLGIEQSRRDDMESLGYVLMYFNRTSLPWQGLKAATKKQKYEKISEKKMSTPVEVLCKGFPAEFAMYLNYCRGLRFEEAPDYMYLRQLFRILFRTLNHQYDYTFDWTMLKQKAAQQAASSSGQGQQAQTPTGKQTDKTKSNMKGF

In the case of `C=CCN(C)CCCCCCOc1ccc(C(=O)c2ccc(Br)cc2)c(F)c1` [Ro 48-8071, reference compound], the “SILAC ratio Pcyox11” value in assay [1] (competitor 25 μM) was found to be 1.0. Moreover, in assay [2] (competitor 25 μM), the “SILAC ratio, Slc35b2” value amounted to 0.9. Also, the “SILAC ratio Puf60” value in assay [3] (competitor 25 μM) is 1.0. Moreover, the “SILAC ratio, Atp2a2” value in assay [4] (competitor 25 μM) amounted to 1.2. Besides, in assay [5] (competitor 25 μM), the “SILAC ratio Slc25a10” value was 0.9. Moreover, the “SILAC ratio Csnk1a1” value in assay [6] (competitor 25 μM) amounted to 0.9. Further, the “SILAC ratio, Tmem97” value in assay [7] (competitor 25 μM) was 10.0. Also, the “SILAC ratio, Tmed1” value in assay [8] (competitor 25 μM) came out at 1.2.
On to `CN1CCN(C(=O)c2[nH]c3ccc([N+](=O)[O-])cc3c2-c2ccccc2)CC1` [MJN228, (4-Methylpiperazin-1-yl)(5-nitro-3-phenyl-1H-indol-2-yl)methanone], for which the “SILAC ratio Pcyox11” value in assay [1] (competitor 10 μM) is reported as 1.2; in assay [1] (competitor 25 μM), 1.8; in assay [1] (competitor 50 μM), 1.7; in assay [1] (competitor 100 μM) it was 2.5. Further, the “SILAC ratio, Slc35b2” value in assay [2] (competitor 10 μM) is recorded as 1.0; in assay [2] (competitor 25 μM), 1.1; in assay [2] (competitor 50 μM), 1.6; in assay [2] (competitor 100 μM), 1.2. The “SILAC ratio Puf60” value is 1.4 in assay [3] (competitor 10 μM), 1.2 in assay [3] (competitor 25 μM), 1.0 in assay [3] (competitor 50 μM) and 1.2 in assay [3] (competitor 100 μM). For the same molecule, the “SILAC ratio, Atp2a2” value in assay [4] (competitor 10 μM) was found to be 1.3; in assay [4] (competitor 25 μM), 1.4; in assay [4] (competitor 50 μM) it was 1.4; in assay [4] (competitor 100 μM) it was 1.9. Moreover, the “SILAC ratio Slc25a10” value was 1.2 in assay [5] (competitor 10 μM), 1.2 in assay [5] (competitor 25 μM), 1.3 in assay [5] (competitor 50 μM) and 1.0 in assay [5] (competitor 100 μM). Also, the “SILAC ratio Csnk1a1” value is on record as 1.4 in assay [6] (competitor 25 μM) and 1.3 in assay [6] (competitor 100 μM). Further, the “SILAC ratio, Tmem97” value in assay [7] (competitor 10 μM) stood at 1.4; in assay [7] (competitor 25 μM), 1.7; in assay [7] (competitor 50 μM) it was 2.1; in assay [7] (competitor 100 μM), 3.2. In addition, the “SILAC ratio, Tmed1” value in assay [8] (competitor 10 μM) was 1.1; in assay [8] (competitor 25 μM), 1.6; in assay [8] (competitor 50 μM), 2.1; in assay [8] (competitor 100 μM), 2.2.
In the case of `CCCCC/C=C\C/C=C\C/C=C\C/C=C\CCCC(=O)NCCO` [AEA, anandamide, reference compound], the “SILAC ratio Pcyox11” value in assay [1] (competitor 200 μM) came out at 1.5. Besides, the “SILAC ratio, Slc35b2” value in assay [2] (competitor 200 μM) is 1.9. Further, the “SILAC ratio Puf60” value in assay [3] (competitor 200 μM) is listed as 1.3. Also, in assay [4] (competitor 200 μM), the “SILAC ratio, Atp2a2” value was determined as 2.2. Besides, in assay [5] (competitor 200 μM), the “SILAC ratio Slc25a10” value was 1.2. In addition, the “SILAC ratio, Tmem97” value in assay [7] (competitor 200 μM) amounted to 1.8. For the same molecule, the “SILAC ratio, Tmed1” value in assay [8] (competitor 200 μM) is 2.1.
As to `CN1CCN(C(=O)c2c(-c3ccccc3)c3cc([N+](=O)[O-])ccc3n2C)CC1` [KML110, (1-Methyl-5-nitro-3-phenyl-1H-indol-2-yl)(4-methylpiperazin-1-yl)methanone], the “SILAC ratio Pcyox11” value in assay [1] (competitor 25 μM) is listed as 2.0. Moreover, the “SILAC ratio, Slc35b2” value in assay [2] (competitor 25 μM) was found to be 1.3. Also, the “SILAC ratio Puf60” value in assay [3] (competitor 25 μM) worked out at 1.3. Further, the “SILAC ratio, Atp2a2” value in assay [4] (competitor 25 μM) is given as 1.3. In addition, the “SILAC ratio Slc25a10” value in assay [5] (competitor 25 μM) is 1.2. Also, the “SILAC ratio Csnk1a1” value in assay [6] (competitor 25 μM) was 1.5. Further, the “SILAC ratio, Tmem97” value in assay [7] (competitor 25 μM) worked out at 1.6. The “SILAC ratio, Tmed1” value in assay [8] (competitor 25 μM) is reported as 1.6.
`O=C(/C=C/c1cccnc1)NCCCCC1CCN(C(=O)c2ccccc2)CC1` [FK-866, reference compound]: the “SILAC ratio Pcyox11” value in assay [1] (competitor 25 μM) was found to be 1.3. Moreover, the “SILAC ratio, Slc35b2” value in assay [2] (competitor 25 μM) turned out to be 1.0. Also, the “SILAC ratio Puf60” value in assay [3] (competitor 25 μM) was found to be 1.3. The “SILAC ratio, Atp2a2” value in assay [4] (competitor 25 μM) is reported as 1.1. Besides, the “SILAC ratio Slc25a10” value in assay [5] (competitor 25 μM) is on record as 1.2. The “SILAC ratio Csnk1a1” value in assay [6] (competitor 25 μM) is given as 1.5. Further, the “SILAC ratio, Tmem97” value in assay [7] (competitor 25 μM) is given as 1.0. The “SILAC ratio, Tmed1” value in assay [8] (competitor 25 μM) came to 1.3.
